System: not listed separately
Assay: Antiproliferative activity against human Hs 578T cells assessed as cell growth at 10^-6 M after 48 hrs by sulforhodamine B assay
Type: functional
Settings: read-out: Activity
CNC(=O)c1cc(Oc2ccc3nc(NC(=O)Nc4cc(C(F)(F)F)cc(C(F)(F)F)c4)sc3c2)ccn1 showed a growth at 1 µM of 73%.

System: NCI-H522
Assay: Antiproliferative activity against human NCI-H522 cells assessed as cell growth at 10^-8 M after 48 hrs by sulforhodamine B assay
Type: functional
Settings: NCI-H522, 48 h, read-out: Activity
Work on CNC(=O)c1cc(Oc2ccc3nc(NC(=O)Nc4cc(C(F)(F)F)cc(C(F)(F)F)c4)sc3c2)ccn1 yielded a growth at 0.01 µM of 95%.

System: T47D
Assay: Antiproliferative activity against human T47D cells assessed as cell growth at 10^-7 M after 48 hrs by sulforhodamine B assay
Type: functional
Settings: read-out: Activity
Work on CNC(=O)c1cc(Oc2ccc3nc(NC(=O)Nc4cc(C(F)(F)F)cc(C(F)(F)F)c4)sc3c2)ccn1 yielded a growth at 0.1 µM of 89%.

System: not listed separately
Assay: Antiproliferative activity against human TK10 cells assessed as cell growth at 10^-6 M after 48 hrs by sulforhodamine B assay
Type: functional
Settings: TK-10, 48 h, read-out: Activity
CNC(=O)c1cc(Oc2ccc3nc(NC(=O)Nc4cc(C(F)(F)F)cc(C(F)(F)F)c4)sc3c2)ccn1 gave a growth at 1 µM of 87%.

System: not listed separately
Assay: Antiproliferative activity against human SF539 cells assessed as growth inhibition after 48 hrs by sulforhodamine B assay
Type: functional
Settings: SF-539, 48 h
For CNC(=O)c1cc(Oc2ccc3nc(NC(=O)Nc4cc(C(F)(F)F)cc(C(F)(F)F)c4)sc3c2)ccn1, the GI50 was 1240 nM, the LC50 was 6330 nM and the TGI was 2800 nM.

System: SK-MEL-2
Assay: Antiproliferative activity against human SK-MEL-2 cells assessed as cell growth at 10^-6 M after 48 hrs by sulforhodamine B assay
Type: functional
Settings: SK-MEL-2, 48 h, read-out: Activity
CNC(=O)c1cc(Oc2ccc3nc(NC(=O)Nc4cc(C(F)(F)F)cc(C(F)(F)F)c4)sc3c2)ccn1 gave a growth at 1 µM of 52%.

System: Malme-3M
Assay: Antiproliferative activity against human MALME-3M cells assessed as cell growth at 10^-6 M after 48 hrs by sulforhodamine B assay
Type: functional
Settings: read-out: Activity
Compound CNC(=O)c1cc(Oc2ccc3nc(NC(=O)Nc4cc(C(F)(F)F)cc(C(F)(F)F)c4)sc3c2)ccn1 has a growth at 1 µM of 48%.

System: NCI-H322M
Assay: Antiproliferative activity against human NCI-H322M cells assessed as cell growth at 10^-7 M after 48 hrs by sulforhodamine B assay
Type: functional
Settings: read-out: Activity
For CNC(=O)c1cc(Oc2ccc3nc(NC(=O)Nc4cc(C(F)(F)F)cc(C(F)(F)F)c4)sc3c2)ccn1, the growth at 0.1 µM was 102%.

System: not listed separately
Assay: Antiproliferative activity against human OVCAR8 cells assessed as cell growth at 10^-6 M after 48 hrs by sulforhodamine B assay
Type: functional
Settings: OVCAR-8, 48 h, read-out: Activity
Work on CNC(=O)c1cc(Oc2ccc3nc(NC(=O)Nc4cc(C(F)(F)F)cc(C(F)(F)F)c4)sc3c2)ccn1 yielded a growth at 1 µM of 70%.

System: not listed separately
Assay: Antiproliferative activity against human OVCAR5 cells assessed as cell growth at 10^-4 M after 48 hrs by sulforhodamine B assay
Type: functional
Settings: OVCAR-5, 48 h, read-out: Activity
In the case of CNC(=O)c1cc(Oc2ccc3nc(NC(=O)Nc4cc(C(F)(F)F)cc(C(F)(F)F)c4)sc3c2)ccn1, the growth at 100 µM is reported as -74%.

System: SK-MEL-5
Assay: Antiproliferative activity against human SK-MEL-5 cells assessed as cell growth at 10^-6 M after 48 hrs by sulforhodamine B assay
Type: functional
Settings: SK-MEL-5, 48 h, read-out: Activity
With CNC(=O)c1cc(Oc2ccc3nc(NC(=O)Nc4cc(C(F)(F)F)cc(C(F)(F)F)c4)sc3c2)ccn1 the growth at 1 µM was 36%.

System: SK-MEL-28
Assay: Antiproliferative activity against human SK-MEL-28 cells assessed as cell growth at 10^-4 M after 48 hrs by sulforhodamine B assay
Type: functional
Settings: SK-MEL-28, 48 h, read-out: Activity
Compound CNC(=O)c1cc(Oc2ccc3nc(NC(=O)Nc4cc(C(F)(F)F)cc(C(F)(F)F)c4)sc3c2)ccn1 has a growth at 100 µM of -70%.

System: not listed separately
Assay: Antiproliferative activity against human BT549 cells assessed as cell growth at 10^-8 M after 48 hrs by sulforhodamine B assay
Type: functional
Settings: BT-549, 48 h, read-out: Activity
Work on CNC(=O)c1cc(Oc2ccc3nc(NC(=O)Nc4cc(C(F)(F)F)cc(C(F)(F)F)c4)sc3c2)ccn1 yielded a growth at 0.01 µM of 89%.

System: NCI-H23
Assay: Antiproliferative activity against human NCI-H23 cells assessed as cell growth at 10^-4 M after 48 hrs by sulforhodamine B assay
Type: functional
Settings: NCI-H23, 48 h, read-out: Activity
In the case of CNC(=O)c1cc(Oc2ccc3nc(NC(=O)Nc4cc(C(F)(F)F)cc(C(F)(F)F)c4)sc3c2)ccn1, the growth at 100 µM is reported as -52%.

System: not listed separately
Assay: Antiproliferative activity against human COLO205 cells assessed as cell growth at 10^-8 M after 48 hrs by sulforhodamine B assay
Type: functional
Settings: COLO 205, 48 h, read-out: Activity
Work on CNC(=O)c1cc(Oc2ccc3nc(NC(=O)Nc4cc(C(F)(F)F)cc(C(F)(F)F)c4)sc3c2)ccn1 yielded a growth at 0.01 µM of 90%.

System: A498
Assay: Antiproliferative activity against human A498 cells assessed as cell growth at 10^-4 M after 48 hrs by sulforhodamine B assay
Type: functional
Settings: A498, 48 h, read-out: Activity
With CNC(=O)c1cc(Oc2ccc3nc(NC(=O)Nc4cc(C(F)(F)F)cc(C(F)(F)F)c4)sc3c2)ccn1 the growth at 100 µM was -93%.

System: not listed separately
Assay: Antiproliferative activity against human SNB19 cells assessed as cell growth at 10^-6 M after 48 hrs by sulforhodamine B assay
Type: functional
Settings: SNB-19, 48 h, read-out: Activity
CNC(=O)c1cc(Oc2ccc3nc(NC(=O)Nc4cc(C(F)(F)F)cc(C(F)(F)F)c4)sc3c2)ccn1 gave a growth at 1 µM of 62%.

System: MCF7
Assay: Antiproliferative activity against human MCF7 cells assessed as cell growth at 10^-4 M after 48 hrs by sulforhodamine B assay
Type: functional
Settings: MCF7, 48 h, read-out: Activity
Compound CNC(=O)c1cc(Oc2ccc3nc(NC(=O)Nc4cc(C(F)(F)F)cc(C(F)(F)F)c4)sc3c2)ccn1 has a growth at 100 µM of -55%.

System: SR
Assay: Antiproliferative activity against human SR cells assessed as cell growth at 10^-4 M after 48 hrs by sulforhodamine B assay
Type: functional
Settings: read-out: Activity
With CNC(=O)c1cc(Oc2ccc3nc(NC(=O)Nc4cc(C(F)(F)F)cc(C(F)(F)F)c4)sc3c2)ccn1 the growth at 100 µM was -53%.

System: not listed separately
Assay: Antiproliferative activity against human HOP92 cells assessed as cell growth at 10^-8 M after 48 hrs by sulforhodamine B assay
Type: functional
Settings: HOP-92, 48 h, read-out: Activity
CNC(=O)c1cc(Oc2ccc3nc(NC(=O)Nc4cc(C(F)(F)F)cc(C(F)(F)F)c4)sc3c2)ccn1 gave a growth at 0.01 µM of 102%.

System: SK-MEL-5
Assay: Antiproliferative activity against human SK-MEL-5 cells assessed as cell growth at 10^-4 M after 48 hrs by sulforhodamine B assay
Type: functional
Settings: SK-MEL-5, 48 h, read-out: Activity
In the case of CNC(=O)c1cc(Oc2ccc3nc(NC(=O)Nc4cc(C(F)(F)F)cc(C(F)(F)F)c4)sc3c2)ccn1, the growth at 100 µM is reported as -72%.

System: not listed separately
Assay: Antiproliferative activity against human RPMI8226 cells assessed as growth inhibition after 48 hrs by sulforhodamine B assay
Type: functional
Settings: RPMI-8226, 48 h
In the case of CNC(=O)c1cc(Oc2ccc3nc(NC(=O)Nc4cc(C(F)(F)F)cc(C(F)(F)F)c4)sc3c2)ccn1, the GI50 is reported as 1020 nM.
